Measurements as given in the NIST ThermoML archive (doi:10.1016/j.tca.2015.08.013).

Legend:
[1] = relative permittivity at various frequencies (dimensionless); details: 99 kPa, Liquid, Frequency=2 MHz, Parallel plate capacitor
[2] = refractive index (Na D-line) (dimensionless); details: 101.33 kPa, Liquid, Standard Abbe refractometry

c1ccoc1 [furan]
Details	refractive index, [2]	relative permittivity, [1]
278.15 K	–	3.124
280.65 K	–	3.094
283.15 K	1.42784	3.068
285.65 K	1.42625	3.036
288.15 K	1.42463	3.009
290.65 K	1.42303	2.988
293.15 K	1.42141	2.958
295.65 K	1.41979	2.934
298.15 K	1.41814	2.913
300.65 K	1.4165	2.892
303.15 K	1.41485	2.865

Cc1ccc(C)o1 [2,5-dimethylfuran]
Details	refractive index, [2]	relative permittivity, [1]
278.15 K	–	2.562
280.65 K	–	2.553
283.15 K	1.4477	2.538
285.65 K	1.44645	2.526
288.15 K	1.44494	2.516
290.65 K	1.44362	2.499
293.15 K	1.44218	2.492
295.65 K	1.44079	2.472
298.15 K	1.43942	2.462
300.65 K	1.43796	2.445
303.15 K	1.43665	2.434
305.65 K	1.43513	2.418
308.15 K	1.43383	2.404
310.65 K	1.4323	2.391
313.15 K	1.43098	2.376
315.65 K	1.42947	2.364
318.15 K	1.42815	2.349
320.65 K	1.42664	2.337
323.15 K	1.42525	2.321
325.65 K	1.42381	2.31
328.15 K	1.42239	2.292
330.65 K	1.42098	2.283
333.15 K	1.41948	2.272
335.65 K	1.41815	2.256
338.15 K	1.41657	2.245

Cc1ccco1 [2-methylfuran]
Details	refractive index, [2]	relative permittivity, [1]
278.15 K	–	2.976
280.65 K	–	2.967
283.15 K	1.43942	2.944
285.65 K	1.43794	2.933
288.15 K	1.43644	2.911
290.65 K	1.43495	2.893
293.15 K	1.43344	2.874
295.65 K	1.43194	2.854
298.15 K	1.43044	2.84
300.65 K	1.42893	2.814
303.15 K	1.42742	2.8
305.65 K	1.4259	2.775
308.15 K	1.4244	2.76
310.65 K	1.42289	2.735
313.15 K	1.42138	2.72
315.65 K	1.41984	2.696
318.15 K	1.41831	2.678
320.65 K	1.41675	2.656
323.15 K	1.41521	2.636
325.65 K	1.41366	2.617
328.15 K	1.41212	2.596
330.65 K	1.41059	2.577
333.15 K	1.40907	2.556
335.65 K	1.40747	2.538
338.15 K	1.40589	2.518
